US11884710B2, “Peptide compounds and methods of use in wound healing” (priority 2013, dated 2024)

Assays:
[1] = test system: Acinetobacter baumannii ATCC BAA-747; assay: In vitro bactericidal assay, A. baumannii ATCC BAA-747 (FIGS. 10-11); assay type: cell-based; conditions: for reduction of CFU/ml: highest peptide concentration
Protocol: (§1) Each of the test peptides was used at 25, 12.5 6.25 and 3.12 μM. The gentamicin was used at 4 μg/ml. 1×10^6/ml Acinetobacter baumannii ATCC® BAA-747™ (American Type Culture Collection, Manassas, Va.) were incubated with the peptides, negative buffer control (tryptone saline), and positive control gentamicin for 60 minutes at pH 5.5. 50 μl aliquots were plated out on agar plates and incubated overnight. Colony forming units were counted after overnight incubation and CFU/ml calculated.
as §1, with “7.2.” for “5.5.”
For FIGS. 10-13, in vitro bactericidal assays were performed using a starting inoculum of 1×10^6 CFU/ml of the bacterial suspension. The CFU remaining at the end of the 60-180 minute incubation was determined, and the data was plotted as log reduction in CFU/ml.
In particular, each of the test peptides (CAP37 peptides 120-146WR, 120-146WH, and 95-122 (SEQ ID NOS:30, 31, and 26, respectively)) was used at 25, 12.5, 6.25, and 3.12 μM. Gentamicin was used at 4 μg/ml. 1×10^6/ml Acinetobacter baumannii ATCC® BAA-747™ or Pseudomonas aeruginosa ATCC® 27853™ (American Type Culture Collection, Manassas, Va.) were incubated with the peptides, negative buffer control (tryptone saline), and positive control gentamicin at pH 5.5 or 7.2. A 60 minute incubation was used for Acinetobacter baumannii ATCC® BAA-747™, while a 180 minute incubation was used for Pseudomonas aeruginosa ATCC® 27853™. 50 μl aliquots were plated out on agar plates and incubated overnight. Colony forming units were counted after overnight incubation and CFU/ml calculated.

[2] = test system: mouse corneal epithelium abrasion; assay: In vivo model of corneal wound healing
Protocol: (§2) The mouse corneal epithelium was removed using the AlgerBrush II (The Alger Company, Inc., Lago Vista, Tex.), and corneal abrasions were treated at 0 hours and 16 hours with peptide 95-122 (10^−5 M), or were left untreated in 0.9% sodium chloride (saline vehicle) Wound healing was monitored at 0, 16, and 24 hours using fluorescein staining and a camera-equipped inverted microscope. Data are represented as the percentage of wound closure at 16 hours and 24 hours and are expressed as means±SEM. The data are representative of at least 6 mice per group. *P<0.05 by unpaired t-test as compared to vehicle (0.9% sodium chloride) treated controls.
as §2, with “II,” for “II (The Alger Company, Inc., Lago Vista, Tex.),”, “0” for “0 hours”, “120-146WH (10^−8 M or 10^−6” for “95-122 (10^−5”, “vehicle control).” for “vehicle)”, “group. ***P<0.001,” for “group.”
(A) The epithelium of the mouse cornea was removed using the AlgerBrush II, and corneal abrasions were treated at 0 and 16 hours with HB-EGF (250 ng/ml), rCAP37 (250 ng/ml), or vehicle control (normal saline). Wound closure was monitored at 0, 16, 24, and 48 hours using fluorescein staining and a camera-equipped inverted microscope. Data are represented as the percentage of wound closure and are expressed as mean±SEM. The data are representative of at least 6 mice per group. The percentage of wound closure in response to treatment was compared to vehicle-treated controls by unpaired t-test, **P<0.01, *P<0.05. (B) Representative images of mouse corneal wounds are shown at 0, 16, 24, and 48 hours following treatment with vehicle, HB-EGF, and CAP37. Black dotted lines indicate the wound edge.
In vivo model of corneal wound healing: The in vivo model of wound healing was carried out using a disposable biopsy punch (2 mm, Miltex, York, Pa.) to demarcate the mouse cornea and a 0.5 mm burr using the AlgerBrush II (The Alger Company, Inc., Lago Vista, Tex.) to remove the corneal epithelium.
In vivo model of wound healing: Mice were anesthetized using ketamine (100 mg/kg; Bionichepharma, LLC., St. Lake Forrest, Ill.) and xylazine ([…]; Rompun; Bayer Corp., Shawnee Mission, Kans.), and the right cornea was wounded as follows. A disposable biopsy punch (2 mm, Miltex, York, Pa.) was used to demarcate the mouse cornea. The corneal epithelium was carefully removed within the 2 mm demarcated area with a 0.5 mm burr using the AlgerBrush II (The Alger Company, Inc., Lago Vista, Tex.). The corneal abrasions were treated at 0 and 16 hours with HB-EGF (250 ng/ml), rCAP37 (250 ng/ml), or vehicle control (0.9% sodium chloride, pH 5.5, Baxter, Deerfield, Ill.). Corneal abrasions were visualized using sterile fluorescein sodium ophthalmic strips USP (FLUORETS®, Chauvin Laboratory, Aubenas, France) dampened with sterile PBS. […] The areas of the open wound were quantitated using ImageJ software (US National Institutes of Health), and the results were reported as the percentage of wound closure.

“LDREANLTSSVTILPLPLQNATVEAGTR (listed as Homo sapiens) [Peptide 95-122]” was tested, and the “bactericidal activity, in words” value ([1]; pH 5.5, 60 minutes, peptides 3.12-25 μM, gentamicin 4 μg/ml) was “not active”, the “bactericidal activity, in words” value ([1]; pH 7.2, 60 minutes, peptides 3.12-25 μM, gentamicin 4 μg/ml) was “not active” and the “corneal wound closure, in words” value ([2]; peptide 10^−5 M at 0 and 16 hours, read at 16 and 24 hours) was “promotes corneal wound healing in vivo”.

In the case of “GTRCQVAGWGSWHSGGRLSRFPRFVNV (derivative of peptide of CAP37 protein) [Peptide 120-146WH]”, the “reduction of CFU/ml” value ([1]; pH 5.5, 60 minutes) is reported as about 4 logs, the “reduction of CFU/ml” value ([1]; pH 7.2, 60 minutes) is reported as about 5.5 logs and the “bactericidal activity, in words” value ([1]; peptide at 25 μM) is reported as “highly active”. For the same molecule, the “amount of corneal wound healing vs vehicle, in words” value ([2]; peptide 10^−8 M or 10^−6 M at 0 and 16 hours, read at 16 and 24 hours) was “significantly greater”.

With “GTRCQVAGWGSWRSGGRLSRFPRFVNV (derivative of peptide of Homo sapiens CAP37 protein) [Peptide 120-146WR]” the “reduction of CFU/ml” value ([1]; pH 5.5, 60 minutes) was about 4 logs, the “reduction of CFU/ml” value ([1]; pH 7.2, 60 minutes) was about 5.5 logs and the “bactericidal activity, in words” value ([1]; peptide at 12.5 μM) was “highly active”. The “bactericidal activity, in words” value ([1]; peptide at 25 μM) was “highly active”.

B1: CAP37: cationic antimicrobial protein of Mr 37 kDa; recombinant CAP37 produced in human embryonic kidney (HEK) 293 cells (protein)
chain: IVGGRKARPRQFPFLASIQNQGRHFCGGALIHARFVMTAASCFQSQNPGVSTVVLGAYDLRRRERQSRQTFSISSMSENGYDPQQNLNDLMLLQLDREANLTSSVTILPLPLQNATVEAGTRCQVAGWGSQRSGGRLSRFPRFVNVTVTPEDQCRPNNVCTGVLTRRGGICNGDGGTPLVCEGLAHGVASFSLGPCGRGPDFFTRVALFRDWIDGVLNNPGP
With B1 the “reduction of corneal wound size” value ([2]; CAP37 250 ng/ml at 0 and 16 hours, at 16 hours) was 71% and the corneal wound closure ([2]; CAP37 250 ng/ml at 0 and 16 hours, by 24 hours) was 83%.
